Assay results taken from patent US20240327372A1, “PREPARATION OF PHENE[…] […] STEREOISOMERS THEREOF AND PRECURSORS THEREOF” (priority 2022, published 2024).

Columns and labels:
hNav1.5 = hNav1.5 (Homo sapiens (Human), UniProt Q14524); experiment: hNav1.5 Sodium Channel Assay (peak), Qube APC; assay type: cell-based; conditions: Nav1.5, Antagonist mode, test compound
Protocol: Where presented, IC50 values were determined by a non-linear, least squares regression analysis.
Recombinant HEK-293 cells stably transfected with human Nav1.5 cDNA, recombinant HEK293 cell line expressing the human Cav1.2 (L-type voltage gated calcium channel, hCav1.2 α1C/β2a/α2δ1, and recombinant CHO-K1 cells stably transfected with human hERG cDNA were used separately in each of these assays.
hNav1.5 Sodium Channel Assay—Qube APC Onset and steady state block of peak Nav1.5 current is measured using a pulse pattern, repeated every 5 sec, consisting of a hyperpolarizing pulse to −120 mV for a 200 ms duration, depolarization to −15 mV amplitude for a 40 ms duration, followed by step to 40 mV for 200 ms and finally a 100 ms ramp (1.2 V/s) to a holding potential of −80 mV. Peak current is measured during the step to −15 mV.

SERT = SERT (Rattus norvegicus (Rat), UniProt P31652); experiment: 5-HT release study; assay type: biochemical

Structure (SMILES) | Estimated IC50 (hNav1.5) | EC50 (SERT)
CN[C@@H](C)C(=O)c1ccc2c(c1)OCO2 [(S)-methylone] | N/C (N/C indicates observed mean inhibition was <25%) | 1180 nM
CN[C@H](C)C(=O)c1ccc2c(c1)OCO2 [(R)-methylone] | N/C (N/C indicates observed mean inhibition was <25%) | 
